Results reported in ChEMBL document CHEMBL5233266, “β-Carboline as a Privileged Scaffold for Multitarget Strategies in Alzheimer's Disease Therapy” (J Med Chem, 2021).
Several values for one entry are separate records, joined by “and”; a condition that tells them apart may be missing. Identical values can stand only once. Each block holds one compound with its values, some of them ahead of it.

Assays:
Cholinesterase [1] = target: T1, Cholinesterase (Homo sapiens, UniProt P06276); assay: Inhibition of BuChE (unknown origin) using acetylthiocholine iodide as substrate incubated for 20 mins followed by substrate addition by Ellman's method
Acetylcholinesterase [2] = target: T2, Acetylcholinesterase (Homo sapiens, UniProt P22303); assay: Inhibition of AChE (unknown origin) using acetylthiocholine iodide as substrate incubated for 20 mins followed by substrate addition by Ellman's method
[3] = target: T3, Amine oxidase [flavin-containing] A (Homo sapiens, UniProt P21397); assay: Inhibition of MAO-A (unknown origin)
T3 sequence (P21397 whole entry): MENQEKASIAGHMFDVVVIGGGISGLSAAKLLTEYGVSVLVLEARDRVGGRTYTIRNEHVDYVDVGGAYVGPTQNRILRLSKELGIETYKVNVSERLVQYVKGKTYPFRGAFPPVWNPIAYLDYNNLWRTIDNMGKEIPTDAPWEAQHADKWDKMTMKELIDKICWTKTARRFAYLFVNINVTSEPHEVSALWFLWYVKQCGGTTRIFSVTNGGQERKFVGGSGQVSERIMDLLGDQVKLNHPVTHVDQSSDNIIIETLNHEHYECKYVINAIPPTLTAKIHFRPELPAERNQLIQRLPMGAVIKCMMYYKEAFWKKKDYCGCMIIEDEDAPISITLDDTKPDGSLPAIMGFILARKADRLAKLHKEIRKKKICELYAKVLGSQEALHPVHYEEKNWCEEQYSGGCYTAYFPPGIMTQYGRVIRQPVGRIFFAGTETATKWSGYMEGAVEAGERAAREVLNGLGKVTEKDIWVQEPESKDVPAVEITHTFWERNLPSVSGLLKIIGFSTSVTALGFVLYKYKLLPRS

Acetylcholinesterase [4] = target: T2, Acetylcholinesterase; assay: Inhibition of AChE (unknown origin)
Cholinesterase [5] = target: T1, Cholinesterase; assay: Inhibition of BuChE (unknown origin)
Acetylcholinesterase [6] = target: T2, Acetylcholinesterase; assay: Inhibition of AChE (unknown origin) incubated for 40 mins by Ellman's method
[7] = target: Gamma-aminobutyric acid receptor subunit alpha-4 (Homo sapiens, UniProt P48169); assay: Binding affinity to human recombinant GABAA alpha4 receptor assessed as inhibition constant incubated for 1 hrs by liquid scintillation counting analysis
[8] = target: T4, Gamma-aminobutyric acid receptor subunit alpha-5 (Homo sapiens, UniProt P31644); assay: Binding affinity to human recombinant GABAA alpha5 receptor assessed as inhibition constant incubated for 1 hrs by liquid scintillation counting analysis
T4 sequence (P31644 whole entry): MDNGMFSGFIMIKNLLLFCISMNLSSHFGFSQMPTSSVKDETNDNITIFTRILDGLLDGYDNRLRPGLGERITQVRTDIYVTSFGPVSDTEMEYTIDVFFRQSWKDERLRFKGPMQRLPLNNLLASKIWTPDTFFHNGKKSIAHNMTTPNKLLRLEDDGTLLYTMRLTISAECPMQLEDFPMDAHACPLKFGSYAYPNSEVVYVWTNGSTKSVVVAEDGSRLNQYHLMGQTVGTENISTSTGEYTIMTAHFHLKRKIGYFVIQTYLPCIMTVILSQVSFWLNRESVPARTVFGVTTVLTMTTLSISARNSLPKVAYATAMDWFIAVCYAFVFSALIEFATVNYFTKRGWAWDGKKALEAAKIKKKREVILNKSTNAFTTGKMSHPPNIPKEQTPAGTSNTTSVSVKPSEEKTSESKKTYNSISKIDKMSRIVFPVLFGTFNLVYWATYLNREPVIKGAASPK

[9] = target: T5, Gamma-aminobutyric acid receptor subunit alpha-3 (Homo sapiens, UniProt P34903); assay: Binding affinity to human recombinant GABAA alpha3 receptor assessed as inhibition constant incubated for 1 hrs by liquid scintillation counting analysis
T5 sequence (P34903 whole entry): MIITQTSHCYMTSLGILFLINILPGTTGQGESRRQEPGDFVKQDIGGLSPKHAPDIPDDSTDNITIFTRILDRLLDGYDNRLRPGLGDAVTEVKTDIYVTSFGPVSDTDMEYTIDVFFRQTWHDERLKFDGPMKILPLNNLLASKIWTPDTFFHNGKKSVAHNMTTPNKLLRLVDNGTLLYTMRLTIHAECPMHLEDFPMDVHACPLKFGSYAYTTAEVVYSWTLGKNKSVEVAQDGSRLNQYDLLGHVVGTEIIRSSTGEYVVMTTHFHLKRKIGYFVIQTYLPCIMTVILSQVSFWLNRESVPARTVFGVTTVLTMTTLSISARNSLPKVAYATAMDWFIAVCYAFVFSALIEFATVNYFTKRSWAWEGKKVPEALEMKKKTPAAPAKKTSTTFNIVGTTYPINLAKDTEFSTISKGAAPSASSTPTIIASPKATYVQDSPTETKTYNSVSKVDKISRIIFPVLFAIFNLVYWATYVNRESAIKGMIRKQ

[10] = target: Gamma-aminobutyric acid receptor subunit alpha-6 (Homo sapiens, UniProt Q16445); assay: Binding affinity to human recombinant GABAA alpha6 receptor assessed as inhibition constant incubated for 1 hrs by liquid scintillation counting analysis
[11] = target: T6, Gamma-aminobutyric acid receptor subunit alpha-2 (Homo sapiens, UniProt P47869); assay: Binding affinity to human recombinant GABAA alpha2 receptor assessed as inhibition constant incubated for 1 hrs by liquid scintillation counting analysis
T6 sequence (P47869 whole entry): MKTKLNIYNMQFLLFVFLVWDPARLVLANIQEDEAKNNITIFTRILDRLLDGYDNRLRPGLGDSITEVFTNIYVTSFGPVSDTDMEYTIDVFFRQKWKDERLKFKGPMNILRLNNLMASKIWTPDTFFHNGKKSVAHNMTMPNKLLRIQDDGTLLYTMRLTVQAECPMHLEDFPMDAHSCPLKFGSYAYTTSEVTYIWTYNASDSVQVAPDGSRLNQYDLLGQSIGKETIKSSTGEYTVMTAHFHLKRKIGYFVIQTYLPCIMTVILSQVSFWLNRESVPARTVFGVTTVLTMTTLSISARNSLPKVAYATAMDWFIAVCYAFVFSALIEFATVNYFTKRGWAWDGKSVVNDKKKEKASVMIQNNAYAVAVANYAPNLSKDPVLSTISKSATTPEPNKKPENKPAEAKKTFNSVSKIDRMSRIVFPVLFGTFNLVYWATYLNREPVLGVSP

[12] = target: GABA-A receptor; anion channel; assay: Displacement of [3H]flunitrazepam from GABAA (unknown origin ) receptor by radioligand binding assay; format: protein-complex assay, Homo sapiens
[13] = target: GABA-A receptor; anion channel; assay: Inhibition of GABAA receptor (unknown origin); format: protein-complex assay, Homo sapiens
[14] = target: 5-hydroxytryptamine receptor 2B (Rattus norvegicus, UniProt P30994); assay: Displacement of [3H]-ketanserin from rat 5-HT2B expressed in mouse NIH/3T3 cells assessed as inhibition constant by Cheng-Prusoff equation analysis; format: cell-based
[15] = target: 5-hydroxytryptamine receptor 2B (Homo sapiens, UniProt P41595); assay: Binding affinity to 5-HT2B (unknown origin) assessed as equilibrium binding constant
Sequence of 5-hydroxytryptamine receptor 2B (Homo sapiens, UniProt P41595) (P41595 whole entry): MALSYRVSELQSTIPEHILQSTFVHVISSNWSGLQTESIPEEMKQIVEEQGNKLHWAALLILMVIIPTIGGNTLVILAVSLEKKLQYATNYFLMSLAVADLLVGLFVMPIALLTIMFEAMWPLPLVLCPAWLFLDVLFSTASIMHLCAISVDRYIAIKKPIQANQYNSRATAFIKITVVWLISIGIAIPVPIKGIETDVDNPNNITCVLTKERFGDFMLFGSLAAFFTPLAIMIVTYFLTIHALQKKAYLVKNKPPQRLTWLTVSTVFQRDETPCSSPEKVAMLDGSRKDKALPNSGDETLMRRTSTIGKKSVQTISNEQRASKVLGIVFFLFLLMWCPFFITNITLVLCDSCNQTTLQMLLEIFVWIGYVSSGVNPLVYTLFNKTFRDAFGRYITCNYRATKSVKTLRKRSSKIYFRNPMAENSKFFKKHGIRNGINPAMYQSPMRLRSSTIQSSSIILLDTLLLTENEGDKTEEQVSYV

Sequence of 5-hydroxytryptamine receptor 2B (Rattus norvegicus, UniProt P30994) (P30994 whole entry): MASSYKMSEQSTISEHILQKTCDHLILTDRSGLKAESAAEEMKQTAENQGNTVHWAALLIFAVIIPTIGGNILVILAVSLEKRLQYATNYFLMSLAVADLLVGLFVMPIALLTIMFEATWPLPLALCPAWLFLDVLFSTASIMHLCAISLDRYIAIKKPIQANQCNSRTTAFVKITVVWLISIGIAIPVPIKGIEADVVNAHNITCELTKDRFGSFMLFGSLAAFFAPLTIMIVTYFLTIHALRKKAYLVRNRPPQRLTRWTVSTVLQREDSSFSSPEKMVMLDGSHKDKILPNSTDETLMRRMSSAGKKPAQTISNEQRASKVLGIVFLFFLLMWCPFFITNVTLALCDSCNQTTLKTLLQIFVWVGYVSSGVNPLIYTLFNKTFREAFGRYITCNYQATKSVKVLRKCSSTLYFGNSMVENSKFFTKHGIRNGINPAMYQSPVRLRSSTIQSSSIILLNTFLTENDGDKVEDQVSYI
T2 sequence (P22303 whole entry): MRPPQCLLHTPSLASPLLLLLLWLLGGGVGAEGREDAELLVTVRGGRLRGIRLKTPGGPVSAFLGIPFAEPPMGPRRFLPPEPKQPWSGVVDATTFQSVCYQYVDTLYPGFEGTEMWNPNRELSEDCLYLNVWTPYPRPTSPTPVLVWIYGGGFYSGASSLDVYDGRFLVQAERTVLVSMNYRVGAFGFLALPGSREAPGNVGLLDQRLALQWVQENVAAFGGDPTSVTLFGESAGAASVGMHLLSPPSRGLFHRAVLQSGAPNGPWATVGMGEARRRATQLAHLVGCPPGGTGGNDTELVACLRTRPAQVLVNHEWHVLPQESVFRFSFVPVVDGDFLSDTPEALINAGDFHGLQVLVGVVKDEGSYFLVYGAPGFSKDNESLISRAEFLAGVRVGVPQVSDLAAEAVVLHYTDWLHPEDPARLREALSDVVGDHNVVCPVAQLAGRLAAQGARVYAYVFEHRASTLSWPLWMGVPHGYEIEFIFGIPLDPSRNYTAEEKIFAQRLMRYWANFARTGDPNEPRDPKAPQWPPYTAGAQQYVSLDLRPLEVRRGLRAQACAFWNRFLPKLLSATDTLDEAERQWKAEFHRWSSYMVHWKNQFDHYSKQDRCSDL
T1 sequence (P06276 whole entry): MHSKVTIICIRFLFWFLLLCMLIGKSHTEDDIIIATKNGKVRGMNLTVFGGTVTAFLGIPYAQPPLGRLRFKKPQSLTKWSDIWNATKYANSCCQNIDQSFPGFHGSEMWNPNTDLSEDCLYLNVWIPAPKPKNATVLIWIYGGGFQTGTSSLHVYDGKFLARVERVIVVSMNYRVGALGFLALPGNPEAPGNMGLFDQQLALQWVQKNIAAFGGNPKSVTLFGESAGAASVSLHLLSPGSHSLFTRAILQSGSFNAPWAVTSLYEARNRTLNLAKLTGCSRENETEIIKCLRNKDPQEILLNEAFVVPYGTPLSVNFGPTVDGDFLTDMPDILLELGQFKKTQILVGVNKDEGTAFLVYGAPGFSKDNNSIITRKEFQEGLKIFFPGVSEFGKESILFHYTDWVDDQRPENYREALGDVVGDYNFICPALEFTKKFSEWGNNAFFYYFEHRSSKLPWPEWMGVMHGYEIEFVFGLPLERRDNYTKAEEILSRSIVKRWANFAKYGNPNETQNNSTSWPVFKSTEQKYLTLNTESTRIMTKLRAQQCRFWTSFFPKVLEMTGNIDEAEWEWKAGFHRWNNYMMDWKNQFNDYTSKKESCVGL
Sequence of Gamma-aminobutyric acid receptor subunit alpha-4 (P48169 whole entry): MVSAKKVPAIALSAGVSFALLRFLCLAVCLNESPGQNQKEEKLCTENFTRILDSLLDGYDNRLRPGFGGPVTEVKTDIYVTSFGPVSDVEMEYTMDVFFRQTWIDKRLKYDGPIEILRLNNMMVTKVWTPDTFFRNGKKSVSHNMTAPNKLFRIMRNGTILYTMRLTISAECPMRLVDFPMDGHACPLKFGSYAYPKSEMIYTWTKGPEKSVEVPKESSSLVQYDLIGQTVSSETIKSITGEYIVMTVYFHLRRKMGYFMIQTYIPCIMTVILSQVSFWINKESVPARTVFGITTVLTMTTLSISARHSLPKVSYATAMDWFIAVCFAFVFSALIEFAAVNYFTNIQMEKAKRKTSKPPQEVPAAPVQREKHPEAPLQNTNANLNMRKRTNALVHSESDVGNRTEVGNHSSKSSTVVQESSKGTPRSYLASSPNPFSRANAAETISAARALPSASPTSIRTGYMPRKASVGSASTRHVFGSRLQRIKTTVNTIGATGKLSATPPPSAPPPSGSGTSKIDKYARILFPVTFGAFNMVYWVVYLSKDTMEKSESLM
Sequence of Gamma-aminobutyric acid receptor subunit alpha-6 (Q16445 whole entry): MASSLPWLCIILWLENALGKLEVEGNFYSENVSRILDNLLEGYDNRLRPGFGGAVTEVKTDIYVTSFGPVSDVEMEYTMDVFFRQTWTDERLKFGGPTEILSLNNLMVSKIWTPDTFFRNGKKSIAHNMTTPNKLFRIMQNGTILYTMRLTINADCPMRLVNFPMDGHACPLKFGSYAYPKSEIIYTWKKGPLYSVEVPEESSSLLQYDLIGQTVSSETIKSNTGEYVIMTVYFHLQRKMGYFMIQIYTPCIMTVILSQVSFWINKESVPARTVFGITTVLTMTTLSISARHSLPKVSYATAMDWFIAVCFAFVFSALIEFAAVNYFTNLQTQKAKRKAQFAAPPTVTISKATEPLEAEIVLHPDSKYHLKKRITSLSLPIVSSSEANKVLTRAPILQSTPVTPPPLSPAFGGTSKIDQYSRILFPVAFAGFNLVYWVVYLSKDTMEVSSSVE

IC50 [3]: 260 nM
Structure (SMILES): CCCn1c2cc(OCc3cn(Cc4ccccc4Cl)nn3)ccc2c2ccnc(C)c21

IC50 [3]: 40 nM
Structure (SMILES): Cc1nccc2c1[nH]c1cc(CO)ccc12

Ki [7]: 1000 nM
Ki [8]: 590 nM
Ki [9]: 69 nM
Ki [10]: > 1000 nM
Ki [11]: 52 nM
IC50 [12]: 3 nM
Structure (SMILES): CCCOc1cc2c(cn1)[nH]c1ccccc12

IC50 [13]: 0.8 nM
Structure (SMILES): COCc1c(C(=O)OC(C)C)ncc2[nH]c3ccc4oc(C(C)C)cc4c3c12

Ki [14]: 0.1 nM
Kb [15]: < 0.3 nM
Structure (SMILES): COc1ccc(CC2NCCc3c2[nH]c2cccc(I)c32)cc1OC (configuration not stated)

Ki [14]: 0.2 nM
Kb [15]: < 0.3 nM
Structure (SMILES): COc1ccc(CC2NCCc3c2[nH]c2c(F)cc(F)cc32)cc1OC (configuration not stated)

Ki [14]: 0.2 nM
Kb [15]: < 0.3 nM and 0.08 nM
Structure (SMILES): COc1ccc(CC2NCCc3c2[nH]c2c(C)cc(C)cc32)cc1OC (configuration not stated)

IC50 [13]: 4 nM
Structure (SMILES): O=[N+]([O-])c1ccc2[nH]c3cnc4c5ccccc5[nH]c4c3c2c1

IC50 [13]: > 4000 nM
Structure (SMILES): c1ccc(COc2ccc3c(c2)[nH]c2c3ncc3[nH]c4ccccc4c32)cc1

Ki [14]: 0.2 nM
Kb [15]: < 0.3 nM
Structure (SMILES): COc1ccc(CC2NCCc3c2[nH]c2ccc(C)cc32)c(Cl)c1OC (configuration not stated)

IC50 [13]: 4 nM
Structure (SMILES): Brc1ccc2[nH]c3cnc4c5ccccc5[nH]c4c3c2c1

More lines, now with the values behind:

Structure (SMILES): CN1c2ccc(OCc3ccccc3)cc2C(=O)N2CCc3c([nH]c4ccccc34)C21 (configuration not stated)
IC50 (Cholinesterase [1]): 880 nM
IC50 (Acetylcholinesterase [2]): 3000 nM

Structure (SMILES): COC(=O)C1=CO[C@@H](C)[C@H]2C[n+]3ccc4c([nH]c5ccccc54)c3C[C@H]12
IC50 (Acetylcholinesterase [2]): 780 nM

Structure (SMILES): CCCCCCCNC(=O)Oc1ccc2c(c1)CN1CCc3c([nH]c4ccccc34)C1N2C (configuration not stated)
IC50 (Cholinesterase [1]): 77 nM
IC50 (Acetylcholinesterase [2]): > 10000 nM

Structure (SMILES): Cn1c2ccccc2c2cc[n+](-c3ccc(I)cc3)cc21
IC50 (Acetylcholinesterase [4]): 240 nM and 300 nM
IC50 (Cholinesterase [5]): 32000 nM and 116000 nM
IC50 (Acetylcholinesterase [6]): 240 nM

Structure (SMILES): O=C(CCN1CCCC1)Nc1ccc2c(c1)CN1CCc3c([nH]c4ccccc34)C1=N2
IC50 (Cholinesterase [1]): 840 nM
IC50 (Acetylcholinesterase [2]): 29 nM

Structure (SMILES): O=C1c2ccccc2-[n+]2ccc3c([nH]c4ccccc43)c21 [FASCAPLYSIN]
IC50 (Cholinesterase [1]): 90000 nM
IC50 (Acetylcholinesterase [2]): 1500 nM

Structure (SMILES): Cc1ccc(-[n+]2ccc3c4ccccc4n(C)c3c2)cc1
IC50 (Acetylcholinesterase [4]): 290 nM and 300 nM
IC50 (Cholinesterase [5]): 32000 nM and 116000 nM
IC50 (Acetylcholinesterase [6]): 240 nM

Structure (SMILES): COc1ccc(CC2NCCc3c2[nH]c2cccc(SC)c32)cc1OC (configuration not stated)
Ki [14]: 0.1 nM
Kb [15]: < 0.3 nM

Structure (SMILES): O=C(CN1CCCCC1)Nc1ccc2nc3c4[nH]c5ccccc5c4ccn3c(=O)c2c1
IC50 (Cholinesterase [1]): 5400 nM
IC50 (Acetylcholinesterase [2]): 10 nM

Structure (SMILES): Cc1nccc2c1[nH]c1cc(OCC(C)C)ccc12
IC50 [3]: 5 nM

Structure (SMILES): C=C[C@H]1[C@@H](/C(=C/O)C(=O)OC)C[C@H]2c3[nH]c4ccccc4c3CCN2[C@H]1O[C@@H]1O[C@H](CO)[C@@H](O)[C@H](O)[C@H]1O
IC50 (Acetylcholinesterase [2]): 1900 nM

Structure (SMILES): Cn1c2c(c3ccccc31)CC[N+](c1ccc(I)cc1)=C2
IC50 (Acetylcholinesterase [6]): 1500 nM
